Series [1] deals with geographic atrophy [地図状萎縮]. Particulars: 10 mg intravitreal once a month, 18 months, cited from earlier work.
The subject of series [2] is Bruch's membrane [ブルッフ膜]. Description: Bruch's membrane thickness and integrity by electron microscopy, aged macaques. Type of series: in vivo, cynomolgus macaque (Macaca fascicularis).
Series [3] concerns esterified cholesterol in Bruch's membrane [ブルッフ膜内のエステル型コレステロール]. In words: Filipin fluorescence of esterified cholesterol in Bruch's membrane, aged macaques. Particulars: injected eye; 6 monthly intravitreal injections, total 625 μg; vs scrambled L-4F. In kind it is in vivo, cynomolgus macaque (Macaca fascicularis).
Series [4] deals with high-sensitivity C-reactive protein (hsCRP) [高感度C−反応性タンパク質(hsCRP)]. Description: Blood level of high-sensitivity C-reactive protein, aged macaques. Type of series: in vivo, cynomolgus macaque (Macaca fascicularis). As to conditions: 6 monthly intravitreal injections.
In series [5] the test system is neutral lipid in and on Bruch's membrane [ブルッフ膜内及びブルッフ膜上の中性脂質]. Description: Oil red O (ORO) staining of neutral lipid in and on Bruch's membrane, aged macaques with naturally occurring age-related maculopathy. In kind it is in vivo, cynomolgus macaque (Macaca fascicularis). Particulars: injected eye; 6 monthly intravitreal injections, total 625 μg; after 6 months; vs scrambled L-4F.

Series [6] relates to membrane attack complex (MAC, C5b-9) [膜侵襲複合体(MAC、C5b−9)]. Description: Immunohistochemistry of membrane attack complex in Bruch's membrane and choriocapillaris, aged macaques. In kind it is in vivo, cynomolgus macaque (Macaca fascicularis). As to conditions: injected eye; 6 monthly intravitreal injections, total 625 μg; vs scrambled L-4F.
Series [7] deals with fellow non-injected eye [もう片方の非注射側の眼]. Description: Effect in the fellow non-injected eye (staining and thickness, figures 2 to 6), aged macaques. In kind it is in vivo, cynomolgus macaque (Macaca fascicularis). Particulars: after 6 monthly intravitreal injections (figures 2 to 6).
Series [8] can be described thus: Tolerability and adverse events of intravitreal injection, aged macaques. In kind it is in vivo, cynomolgus macaque (Macaca fascicularis). As to conditions: all macaques; 6 monthly intravitreal injections.
In series [9] the test system is complement factor D (CFD) [補体因子D(CFD)]. Description: Immunohistochemistry of complement factor D, aged macaques. As to conditions: injected eye; 6 monthly intravitreal injections, total 625 μg; vs scrambled L-4F. In kind it is in vivo, cynomolgus macaque (Macaca fascicularis).
The conditions of series [10]: estimated; cited from earlier work.

As for “ランパリズマブ: antigen-binding fragment (Fab) of a humanized monoclonal antibody targeting complement factor D”, the “reduction of geographic atrophy area, CFI biomarker-positive subgroup” value in series [1] (CFI biomarker-positive patients) is approximately 44%. Also, the “reduction of geographic atrophy area in the injected eye compared with placebo patients” value in series [1] (one eye) is reported as approximately 20%.

Consider “Ac−DWFKAFYDKVAEKFKEAF−NH2 (Ac-DWFKAFYDKVAEKFKEAF-NH2) [L−4F]”, for which the “thickness of Bruch's membrane” value in [2] (L-4F-injected eye, temporal outer macula, post mortem, printed 1.31μm±SE0.11, placebo (scrambled L-4F) 1.73μm±SE0.02) came out at 1.31 μm. The “Bruch's membrane integrity” value in series [2] (after removal of lipid deposits, confirmed by electron microscopy) is reported as “BrMの完全性が回復し”. In addition, the “reduction of Bruch's membrane thickness compared with placebo-injected eyes” value in series [2] (injected eye, temporal outer macula, vs scrambled L-4F) is approximately 24%. Further, in series [3], the “reduction of esterified cholesterol in Bruch's membrane (filipin fluorescence, semiquantitative) compared with placebo-injected eyes” value is listed as approximately 68%. Besides, in [4], the “change in hsCRP blood level compared with the day before the first injection” value is “hsCRPの血中レベルを増加させなかった”. Also, the “reduction of lipid deposits from Bruch's membrane (oil red O staining) compared with placebo-injected eyes” value in [5] is approximately 56%. In addition, in [6], the “reduction of MAC (C5b-9) level in Bruch's membrane and choriocapillaris compared with eyes injected with scrambled peptide” value is approximately 58%. In addition, in [7], the “effect on the fellow non-injected eye relative to the injected eye” value was “同様の効果を有していた”. Further, in series [8], the tolerability entry is reported as “十分耐性があり”. Also, the “reduction of complement factor D level compared with eyes injected with scrambled peptide” value in series [9] is reported as approximately 41%.

Regarding “アフリベルセプト: soluble fusion protein comprising extracellular domains of VEGFR”, the intravitreal half-life in series [10] was approximately 216 h.

Consider ラニビズマブ: anti-VEGF antibody or fragment, for which the intravitreal half-life in series [10] is approximately 170 h.

In the case of ベバシズマブ: anti-VEGF antibody or fragment, the intravitreal half-life in [10] was approximately 235 h.

The record behind these values is JP2020514407A, “アポリポプロテイン模倣物を用いる加齢黄斑変性と他の眼疾患の治療” (MacRegen Inc, priority 2017, dated 2018).
